Test results as given in US9670227B2, “Thienopyrimidine derivatives, a process for their preparation and pharmaceutical compositions containing them” (LES LABORATOIRES SERVIER, priority 2013, dated 2017).
Where two headings read alike, the source gives them in different places.

Target: Mcl-1 protein (UniProtKB primary accession number: Q07820) (Homo sapiens, UniProt Q07820)
Assay: Inhibition of Mcl-1 by fluorescence polarisation, Method 1
Type: binding
Details: for IC50: read-out: IC50 (M) Mcl-1 FP; for percentage fluorescence polarisation inhibition (Mcl-1 FP), partial inhibitors: test compound at 10 uM, Method 1, or Method 2 where the value is underlined (underlining not visible); for percentage fluorescence polarisation inhibition, Mcl-1 FP: partial inhibitors, @ 10 uM test compound
How it was run: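 FP readout of relative binding potency. Mcl-1 5 nM final, fluorescein-labelled ligand 1 nM final; buffer 10 mM HEPES, 150 mM NaCl, 0.05% Tween 20, pH 7.4; 11-pt dilution series, 5% DMSO final.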

[1] = fluorescence polarisation, Method 1, or Method 2
[2] = fluorescence polarisation test, Method 2 values are underlined in the patent (underlining not visible here)

Mcl-1 protein, sequence (Q07820 whole entry): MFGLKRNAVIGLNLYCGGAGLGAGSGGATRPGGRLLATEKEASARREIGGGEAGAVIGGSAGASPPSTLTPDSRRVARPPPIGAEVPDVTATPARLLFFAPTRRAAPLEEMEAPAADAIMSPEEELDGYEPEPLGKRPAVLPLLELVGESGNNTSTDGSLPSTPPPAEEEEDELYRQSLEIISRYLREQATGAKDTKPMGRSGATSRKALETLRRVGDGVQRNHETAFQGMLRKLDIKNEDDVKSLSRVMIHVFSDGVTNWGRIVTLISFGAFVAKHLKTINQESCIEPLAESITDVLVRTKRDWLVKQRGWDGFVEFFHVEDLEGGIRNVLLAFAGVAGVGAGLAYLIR

Work on `CC(C)=Cc1sc2ncnc(OC(Cc3ccccc3)C(=O)O)c2c1-c1ccc(OCCN2CCN(C)CC2)c(Cl)c1C` [Example 494, (2R)-2-{[(5Sa)-5-{3-chloro-2-methyl-4-[2-(4-methylpiperazin-1-yl)ethoxy]phenyl}-6-(2-methylprop-1-en-1-yl)thieno[2,3-d]pyrimidin-4-yl]oxy}-3-phenylpropanoic acid] yielded an IC50 [1] of 4.4e-08 M.
`CCc1sc2ncnc(O[C@@H](Cc3ccccc3OC)C(=O)O)c2c1-c1ccc(O)c(Cl)c1C` (single isomer, unassigned) [Example 680] was tested, and the IC50 [1] was 2.8e-05 M.
`Cc1c(-c2c(-c3ccc(F)o3)sc3ncnc(OC(Cc4ccccc4OCc4ccnc(N5CCOCC5)n4)C(=O)O)c23)ccc(OCCN2CCN(C)CC2)c1Cl` [Example 175, (2R)-2-{[(5Sa)-5-{3-chloro-2-methyl-4-[2-(4-methylpiperazin-1-yl)ethoxy]phenyl}-6-(5-fluorofuran-2-yl)thieno[2,3-d]pyrimidin-4-yl]oxy}-3-(2-{[2-(morpholin-4-yl)pyrimidin-4-yl]methoxy}phenyl)propanoic acid] gave an IC50 [2] of 3.9e-09 M.
In the case of `CCc1sc2ncnc(OC(Cc3ccccc3)C(=O)O)c2c1-c1ccc(O)cc1C` [Example 448, (2R)-2-{[6-ethyl-(5Ra)-5-(4-hydroxy-2-methylphenyl)thieno[2,3-d]pyrimidin-4-yl]oxy}-3-phenylpropanoic acid], the IC50 [1] is reported as 4.4e-07 M.
Work on `COc1ccccc1CC(Oc1ncnc2sc(-c3ccc(F)cc3)c(-c3ccc(OCCN4CCN(C)CC4)c(Cl)c3C)c12)C(=O)OCC(F)(F)F` [Example 641, 2,2,2-trifluoroethyl (2R)-2-{[(5Sa)-5-{3-chloro-2-methyl-4-[2-(4-methylpiperazin-1-yl)ethoxy]phenyl}-6-(4-fluorophenyl)thieno[2,3-d]pyrimidin-4-yl]oxy}-3-(2-methoxyphenyl)propanoate] yielded an IC50 [1] of 9.6e-07 M.
`CCc1sc2ncnc(OC(Cc3ccccc3)C(=O)O)c2c1-c1cc(OCCN2CCN(C)CC2)ccc1C` [Example 440, (2R)-2-[(6-ethyl-(5Sa)-5-{2-methyl-5-[2-(4-methylpiperazin-1-yl)ethoxy]phenyl}thieno[2,3-d]pyrimidin-4-yl)oxy]-3-phenylpropanoic acid and (2S)-2-[(6-ethyl-(5Ra)-5-{2-methyl-5-[2-(4-methylpiperazin-1-yl)ethoxy]phenyl}thieno[2,3-d]pyrimidin-4-yl)oxy]-3-phenylpropanoic acid] showed an IC50 [1] of 3e-07 M.
With `CCCCCCCCOC(=O)[C@@H](Cc1ccccc1OCc1ccnc(-c2ccccc2OC)n1)Oc1ncnc2sc(-c3ccc(F)cc3)c(-c3ccc(OC)c(Cl)c3C)c12` [Example 847, octyl (2R)-2-{[(5Sa)-5-(3-chloro-4-methoxy-2-methylphenyl)-6-(4-fluorophenyl)thieno[2,3-d]pyrimidin-4-yl]oxy}-3-(2-{[2-(2-methoxyphenyl)pyrimidin-4-yl]methoxy}phenyl)propanoate] the “percentage fluorescence polarisation inhibition (Mcl-1 FP), partial inhibitors” value was 3.55% @ 10 uM.
Molecule `CCc1sc2ncnc(OC(Cc3ccccc3)C(=O)O)c2c1-c1cccc(Cl)c1C` [Example 450, (2R)-2-{[(5Sa)-5-(3-chloro-2-methylphenyl)-6-ethylthieno[2,3-d]pyrimidin-4-yl]oxy}-3-phenylpropanoic acid] has an IC50 [1] of 2.6e-08 M.
`COCCCc1ccccc1CC(Oc1ncnc2sc(-c3ccc(F)cc3)c(-c3ccc(OCCN4CCN(C)CC4)c(Cl)c3C)c12)C(=O)O` [Example 655, (2R)-2-{[(5Sa)-5-{3-chloro-2-methyl-4-[2-(4-methylpiperazin-1-yl)ethoxy]phenyl}-6-(4-fluorophenyl)thieno[2,3-d]pyrimidin-4-yl]oxy}-3-[2-(3-methoxypropyl)phenyl]propanoic acid] showed an IC50 [1] of 2.6e-08 M.
With `CCOC(=O)[C@@H](Cc1ccccc1OC[C@H]1CCCO1)Oc1ncnc2sc(-c3ccc(F)cc3)c(-c3ccc(OCCN4CCOCC4)c(Cl)c3C)c12` [Example 629, ethyl (2R)-2-{[(5Sa)-5-{3-chloro-2-methyl-4-[2-(morpholin-4-yl)ethoxy]phenyl}-6-(4-fluorophenyl)thieno[2,3-d]pyrimidin-4-yl]oxy}-3-{2-[(2R)-tetrahydrofuran-2-ylmethoxy]phenyl}propanoate] the “percentage fluorescence polarisation inhibition, Mcl-1 FP” value was 14.95% @ 10 uM.
Molecule `COCCc1nccc(COc2ccccc2CC(Oc2ncnc3sc(-c4ccc(F)o4)c(-c4ccc(OCCN5CCN(C)CC5)c(Cl)c4C)c23)C(=O)O)n1` [Example 174, (2R)-2-{[(5Sa)-5-{3-chloro-2-methyl-4-[2-(4-methylpiperazin-1-yl)ethoxy]phenyl}-6-(5-fluorofuran-2-yl)thieno[2,3-d]pyrimidin-4-yl]oxy}-3-(2-{[2-(2-methoxyethyl)pyrimidin-4-yl]methoxy}phenyl)propanoic acid] has an IC50 [2] of 2.3e-09 M.
For `CCOC(=O)[C@@H](Cc1ccccc1OCc1ccnc(-c2ccccc2F)n1)Oc1ncnc2sc(-c3ccc(F)cc3)c(-c3ccc(OCCN(C)C)c(Cl)c3C)c12` [Example 807, ethyl (2R)-2-{[(5Sa)-5-{3-chloro-4-[2-(dimethylamino)ethoxy]-2-methylphenyl}-6-(4-fluorophenyl)thieno[2,3-d]pyrimidin-4-yl]oxy}-3-(2-{[2-(2-fluorophenyl)pyrimidin-4-yl]methoxy}phenyl)propanoate], the “percentage fluorescence polarisation inhibition (Mcl-1 FP), partial inhibitors” value was 52.45% @ 10 uM.
With `COc1ccccc1CC(Oc1ncnc2sc(-c3ccco3)c(-c3ccc(OCCN4CC[N+](C)([O-])CC4)c(Cl)c3C)c12)C(=O)O` [Example 296, (2R)-2-{[(5Sa)-5-{3-chloro-2-methyl-4-[2-(4-methyl-4-oxidopiperazin-1-yl)ethoxy]phenyl}-6-(furan-2-yl)thieno[2,3-d]pyrimidin-4-yl]oxy}-3-(2-methoxyphenyl)propanoic acid] the IC50 [2] was 9.3e-09 M.
For `COc1ccccc1CC(Oc1ncnc2sc(-c3ccc(C(N)=O)o3)c(-c3ccc(OCCN4CCN(C)CC4)c(Cl)c3C)c12)C(=O)O` [Example 581, (2R)-2-{[6-(5-carbamoylfuran-2-yl)-(5Sa)-5-{3-chloro-2-methyl-4-[2-(4-methylpiperazin-1-yl)ethoxy]phenyl}thieno[2,3-d]pyrimidin-4-yl]oxy}-3-(2-methoxyphenyl)propanoic acid], the IC50 [1] was 4.2e-07 M.
`Cc1ccccc1-c1nccc(COc2ccccc2CC(Oc2ncnc3sc(-c4ccc(F)cc4)c(-c4ccc(OCCN5CCN(C)CC5)c(Cl)c4C)c23)C(=O)O)n1` [Example 113, (2R)-2-{[(5Sa)-5-{3-chloro-2-methyl-4-[2-(4-methylpiperazin-1-yl)ethoxy]phenyl}-6-(4-fluorophenyl)thieno[2,3-d]pyrimidin-4-yl]oxy}-3-(2-{[2-(2-methylphenyl)pyrimidin-4-yl]methoxy}phenyl)propanoic acid] gave an IC50 [2] of 2.6e-09 M.
`CCOC(=O)[C@@H](Cc1ccccc1OCC(F)(F)F)Oc1ncnc2sc(-c3ccc(F)cc3)c(-c3ccc(OCCN4CCN(C)CC4)c(Cl)c3C)c12` [Example 635, ethyl (2R)-2-{[(5Sa)-5-{3-chloro-2-methyl-4-[2-(4-methylpiperazin-1-yl)ethoxy]phenyl}-6-(4-fluorophenyl)thieno[2,3-d]pyrimidin-4-yl]oxy}-3-[2-(2,2,2-trifluoroethoxy)phenyl]propanoate] was tested, and the “percentage fluorescence polarisation inhibition, Mcl-1 FP” value was 50.75% @ 10 uM.
For `Cc1c(-c2c(-c3ccc(F)o3)sc3ncnc(OC(Cc4ccccc4OCc4ccnc(-c5ccncc5)n4)C(=O)O)c23)ccc(OCCN2CCN(C)CC2)c1Cl` [Example 172, (2R)-2-{[(5Sa)-5-{3-chloro-2-methyl-4-[2-(4-methylpiperazin-1-yl)ethoxy]phenyl}-6-(5-fluorofuran-2-yl)thieno[2,3-d]pyrimidin-4-yl]oxy}-3-(2-{[2-(pyridin-4-yl)pyrimidin-4-yl]methoxy}phenyl)propanoic acid], the IC50 [2] was 3e-09 M.
With `COc1ccccc1-c1nccc(COc2ccccc2CC(Oc2ncnc3sc(C#CCCN4CCOCC4)c(-c4ccc(OCCN5CCN(C)CC5)c(Cl)c4C)c23)C(=O)O)n1` [Example 785, (2R)-2-[((5Sa)-5-{3-chloro-2-methyl-4-[2-(4-methylpiperazin-1-yl)ethoxy]phenyl}-6-[4-(morpholin-4-yl)but-1-yn-1-yl]thieno[2,3-d]pyrimidin-4-yl)oxy]-3-(2-{[2-(2-methoxyphenyl)pyrimidin-4-yl]methoxy}phenyl)propanoic acid] the IC50 [1] was 3.85e-09 M.
`Cc1c(-c2c(-c3cccs3)sc3ncnc(OC(Cc4ccccc4)C(=O)O)c23)ccc(OCCN2CCN(C)CC2)c1Cl` [Example 505, (2R)-2-{[(5Sa)-5-{3-chloro-2-methyl-4-[2-(4-methylpiperazin-1-yl)ethoxy]phenyl}-6-(thiophen-2-yl)thieno[2,3-d]pyrimidin-4-yl]oxy}-3-phenylpropanoic acid] was tested, and the IC50 [1] was 5.8e-08 M.
For `CC#Cc1sc2ncnc(O[C@@H](Cc3cccc4occc34)C(=O)O)c2c1-c1ccc(OCCN2CCN(C)CC2)c(Cl)c1C` [Example 491, (2S)-3-(1-benzofuran-4-yl)-2-{[(5Ra)-5-{3-chloro-2-methyl-4-[2-(4-methylpiperazin-1-yl)ethoxy]phenyl}-6-(prop-1-yn-1-yl)thieno[2,3-d]pyrimidin-4-yl]oxy}propanoic acid], the “percentage fluorescence polarisation inhibition, Mcl-1 FP” value was 28.3% @ 10 uM.
`CCc1sc2ncnc(OC(Cc3ccccc3)C(=O)O)c2c1-c1ccc(OCCCn2ccnc2)c(Cl)c1C` [Example 403, (2R)-2-[((5Sa)-5-{3-chloro-4-[3-(1H-imidazol-1-yl)propoxy]-2-methylphenyl}-6-ethylthieno[2,3-d]pyrimidin-4-yl)oxy]-3-phenylpropanoic acid] gave an IC50 [1] of 1.4e-08 M.
Molecule `COc1ccccc1CC(Oc1ncnc2sc(-c3ccc(-c4ccccc4)o3)c(-c3ccc(OCCN4CCN(C)CC4)c(Cl)c3C)c12)C(=O)O` [Example 586, (2R)-2-{[(5Sa)-5-{3-chloro-2-methyl-4-[2-(4-methylpiperazin-1-yl)ethoxy]phenyl}-6-(5-phenylfuran-2-yl)thieno[2,3-d]pyrimidin-4-yl]oxy}-3-(2-methoxyphenyl)propanoic acid] has an IC50 [1] of 1.4e-06 M.
